# Data as given in PubChem BioAssay (NCI).
#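 Protocol summary: plate cells (96-well), add compound at 5 concentrations, incubate 48 h, interpolate endpoints linearly. TGI denotes the concentration required for complete inhibition of growth.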
# Tests used:
# Experiment in all cases: DTP human tumour cell line panel, 48 h
# KM12 colon = system: KM12 colon
# OVCAR-4 ovarian = system: OVCAR-4 ovarian
# TK-10 renal = system: TK-10 renal
# MALME-3M melanoma = system: MALME-3M melanoma
# OVCAR-3 ovarian = system: OVCAR-3 ovarian
# EKVX NSCLC = system: EKVX NSCLC
# K-562 leukemia = system: K-562 leukemia
# ACHN renal = system: ACHN renal
# SN12C renal = system: SN12C renal
# KM20L2 colon = system: KM20L2 colon
# 786-0 renal = system: 786-0 renal
# HCC-2998 colon = system: HCC-2998 colon
# SK-MEL-28 melanoma = system: SK-MEL-28 melanoma
# A498 renal = system: A498 renal
# MOLT-4 leukemia = system: MOLT-4 leukemia
# SF-295 CNS = system: SF-295 CNS
# SNB-75 CNS = system: SNB-75 CNS
# CAKI-1 renal = system: CAKI-1 renal
# LXFL 529 NSCLC = system: LXFL 529 NSCLC
# SNB-19 CNS = system: SNB-19 CNS
# UO-31 renal = system: UO-31 renal
# IGROV1 ovarian = system: IGROV1 ovarian
# OVCAR-5 ovarian = system: OVCAR-5 ovarian
# HL-60(TB) leukemia = system: HL-60(TB) leukemia
# HOP-18 NSCLC = system: HOP-18 NSCLC
# M14 melanoma = system: M14 melanoma
# NCI-H226 lung = system: NCI-H226 lung
# A549 NSCLC = system: A549 NSCLC
# HOP-62 NSCLC = system: HOP-62 NSCLC
# NCI-H460 lung = system: NCI-H460 lung
# COLO 205 colon = system: COLO 205 colon
# SK-MEL-5 melanoma = system: SK-MEL-5 melanoma
# SF-268 CNS = system: SF-268 CNS
# OVCAR-8 ovarian = system: OVCAR-8 ovarian
# DMS 114 small cell lung = system: DMS 114 small cell lung
# RXF 393 renal = system: RXF 393 renal
# U251 CNS = system: U251 CNS
# SF-539 CNS = system: SF-539 CNS
# HOP-92 NSCLC = system: HOP-92 NSCLC
# HCT-15 colon = system: HCT-15 colon
# SW-620 colon = system: SW-620 colon
# UACC-62 melanoma = system: UACC-62 melanoma
# NCI-H522 lung = system: NCI-H522 lung
# HT29 colon = system: HT29 colon
# RXF-631 renal = system: RXF-631 renal
# SK-MEL-2 melanoma = system: SK-MEL-2 melanoma
# SNB-78 CNS = system: SNB-78 CNS
# DLD-1 colon = system: DLD-1 colon
# NCI-H23 lung = system: NCI-H23 lung
# HCT-116 colon = system: HCT-116 colon
# SK-OV-3 ovarian = system: SK-OV-3 ovarian
# M19-MEL melanoma = system: M19-MEL melanoma
# UACC-257 melanoma = system: UACC-257 melanoma
# DMS 273 small cell lung = system: DMS 273 small cell lung
# RPMI-8226 leukemia = system: RPMI-8226 leukemia
# LOX IMVI melanoma = system: LOX IMVI melanoma
# SR leukemia = system: SR leukemia
# CCRF-CEM leukemia = system: CCRF-CEM leukemia
# XF 498 CNS = system: XF 498 CNS
smiles,measurement,setting,value
CN(C)C(N)=NC#N,TGI,KM12 colon,> 100 µM
same,TGI,OVCAR-4 ovarian,> 100 µM
same,TGI,TK-10 renal,> 100 µM
same,TGI,MALME-3M melanoma,> 100 µM
same,TGI,OVCAR-3 ovarian,> 100 µM
same,TGI,EKVX NSCLC,> 100 µM
same,TGI,K-562 leukemia,> 100 µM
same,TGI,ACHN renal,> 100 µM
same,TGI,SN12C renal,> 100 µM
same,TGI,KM20L2 colon,> 100 µM
same,TGI,786-0 renal,> 100 µM
same,TGI,HCC-2998 colon,> 100 µM
same,TGI,SK-MEL-28 melanoma,> 100 µM
same,TGI,A498 renal,> 100 µM
same,TGI,MOLT-4 leukemia,> 100 µM
same,TGI,SF-295 CNS,> 100 µM
same,TGI,SNB-75 CNS,> 100 µM
same,TGI,CAKI-1 renal,> 100 µM
same,TGI,LXFL 529 NSCLC,> 100 µM
same,TGI,SNB-19 CNS,> 100 µM
same,TGI,UO-31 renal,> 100 µM
same,TGI,IGROV1 ovarian,> 100 µM
same,TGI,OVCAR-5 ovarian,> 100 µM
same,TGI,HL-60(TB) leukemia,> 100 µM
same,TGI,HOP-18 NSCLC,> 100 µM
same,TGI,M14 melanoma,> 100 µM
same,TGI,NCI-H226 lung,> 100 µM
same,TGI,A549 NSCLC,> 100 µM
same,TGI,HOP-62 NSCLC,> 100 µM
same,TGI,NCI-H460 lung,> 100 µM
same,TGI,COLO 205 colon,> 100 µM
same,TGI,SK-MEL-5 melanoma,> 100 µM
same,TGI,SF-268 CNS,> 100 µM
same,TGI,OVCAR-8 ovarian,> 100 µM
same,TGI,DMS 114 small cell lung,> 100 µM
same,TGI,RXF 393 renal,74.8 µM
same,TGI,U251 CNS,> 100 µM
same,TGI,SF-539 CNS,> 100 µM
same,TGI,HOP-92 NSCLC,> 100 µM
same,TGI,HCT-15 colon,34.8 µM
same,TGI,SW-620 colon,38.2 µM
same,TGI,UACC-62 melanoma,> 100 µM
same,TGI,NCI-H522 lung,> 100 µM
same,TGI,HT29 colon,> 100 µM
same,TGI,RXF-631 renal,> 100 µM
same,TGI,SK-MEL-2 melanoma,> 100 µM
same,TGI,SNB-78 CNS,> 100 µM
same,TGI,DLD-1 colon,> 100 µM
same,TGI,NCI-H23 lung,> 100 µM
same,TGI,HCT-116 colon,> 100 µM
same,TGI,SK-OV-3 ovarian,> 100 µM
same,TGI,M19-MEL melanoma,> 100 µM
same,TGI,UACC-257 melanoma,> 100 µM
same,TGI,DMS 273 small cell lung,> 100 µM
same,TGI,RPMI-8226 leukemia,> 100 µM
O=C(Nc1nc2ccccc2n1Cc1ccccc1)NC12CC3CC(CC(C3)C1)C2,TGI,KM12 colon,> 100 µM
same,TGI,OVCAR-4 ovarian,82.8 µM
same,TGI,TK-10 renal,> 100 µM
same,TGI,MALME-3M melanoma,> 100 µM
same,TGI,OVCAR-3 ovarian,> 100 µM
same,TGI,EKVX NSCLC,> 100 µM
same,TGI,K-562 leukemia,> 100 µM
same,TGI,ACHN renal,> 100 µM
same,TGI,SN12C renal,> 100 µM
same,TGI,KM20L2 colon,> 100 µM
same,TGI,786-0 renal,92.9 µM
same,TGI,HCC-2998 colon,> 100 µM
same,TGI,SK-MEL-28 melanoma,> 100 µM
same,TGI,MOLT-4 leukemia,> 100 µM
same,TGI,SF-295 CNS,37 µM
same,TGI,SNB-75 CNS,49.8 µM
same,TGI,CAKI-1 renal,> 100 µM
same,TGI,LXFL 529 NSCLC,> 100 µM
same,TGI,SNB-19 CNS,> 100 µM
same,TGI,LOX IMVI melanoma,> 100 µM
same,TGI,UO-31 renal,> 100 µM
same,TGI,IGROV1 ovarian,> 100 µM
same,TGI,OVCAR-5 ovarian,> 100 µM
same,TGI,HL-60(TB) leukemia,> 100 µM
same,TGI,HOP-18 NSCLC,> 100 µM
same,TGI,SR leukemia,> 100 µM
same,TGI,M14 melanoma,> 100 µM
same,TGI,NCI-H226 lung,> 100 µM
same,TGI,A549 NSCLC,> 100 µM
same,TGI,CCRF-CEM leukemia,> 100 µM
same,TGI,HOP-62 NSCLC,> 100 µM
same,TGI,NCI-H460 lung,> 100 µM
same,TGI,COLO 205 colon,> 100 µM
same,TGI,SK-MEL-5 melanoma,> 100 µM
same,TGI,SF-268 CNS,35.5 µM
same,TGI,OVCAR-8 ovarian,> 100 µM
same,TGI,DMS 114 small cell lung,> 100 µM
same,TGI,RXF 393 renal,93.8 µM
same,TGI,U251 CNS,> 100 µM
same,TGI,SF-539 CNS,> 100 µM
same,TGI,XF 498 CNS,73.8 µM
same,TGI,HOP-92 NSCLC,83.6 µM
same,TGI,HCT-15 colon,> 100 µM
same,TGI,SW-620 colon,> 100 µM
same,TGI,UACC-62 melanoma,> 100 µM
same,TGI,NCI-H522 lung,> 100 µM
same,TGI,HT29 colon,> 100 µM
same,TGI,SK-MEL-2 melanoma,> 100 µM
same,TGI,SNB-78 CNS,49.1 µM
same,TGI,DLD-1 colon,> 100 µM
same,TGI,NCI-H23 lung,> 100 µM
same,TGI,HCT-116 colon,> 100 µM
same,TGI,SK-OV-3 ovarian,> 100 µM
same,TGI,M19-MEL melanoma,> 100 µM
same,TGI,UACC-257 melanoma,> 100 µM
same,TGI,DMS 273 small cell lung,55.1 µM
same,TGI,RPMI-8226 leukemia,> 100 µM
